Measured values as given in patent US10052359B2, “Composition for enhancing memory and learning function and/or cognitive function” (KIRIN KABUSHIKI KAISHA, priority 2014, dated 2018).
Entries after “also recorded” stand apart in the source; their conditions may differ.

What follows are compounds tested on scopolamine model of poor memory (assay: Y-maze test (spontaneous alternation behavior) in mice given scopolamine). Conditions: 1 μmol/kg to mice; FIG. 9A, 9B.
Type: in vivo
Protocol: FIG. 1A illustrates a summary of methods of evaluating the memory and learning function and the cognitive function. To 6-week-old male CD-1 mice, 1 mg/kg of the peptide extract or 0.1-3 μmol/kg of a synthetic peptide is orally administered forcibly into stomach and 40 minutes later 0.80 mg/kg of scopolamine hydrochloride was administered intraperitoneally to cause memory impairment. 20 minutes after the intraperitoneal administration of scopolamine, the Y-maze test was conducted to evaluate the spontaneous alternation behavior.
Mice originally have a habit of selecting a route different from the route selected immediately before. Therefore a mouse placed in a Y-maze having 3 arms equivalent in width, length, and the like normally enters the arm different from the arm that the mouse entered immediately before. The Y-maze test is a test to evaluate the short-term memory using the habit of mice.
In the Y-maze test, a Y-maze was used as an experimental apparatus having 3 arms each connected at an angle of 120 degrees and each having a length of 25 cm, a wall high of 20 cm, and a floor width of 5 cm.
Mice were placed in the tip of one of the aims in the Y-maze and the orders of the arms that the mice entered when the mice were allowed to search freely for 8 minutes were recorded. The spontaneous alternation behavior is defined as the behavior in which a mouse selects and enters the different arm three times consecutively. […] 10 mice per group were used for the experiment and the average and the standard error were determined. [Examination of Enzymatic Agent]

Which “enhancing effect on the memory and learning function” value does the source give for PVEP (listed as Bos taurus) here?
The value was “had the enhancing effect on the memory and learning function at the similar level to that of the original amino acid sequence KEMPFPKYPVEP”.

Same assay, conditions: synthetic peptide 0.1-3 μmol/kg orally; scopolamine 0.80 mg/kg i.p.

`N[C@@H](Cc1c[nH]c2ccccc12)C(=O)O` [W, tryptophan, reference compound] was tested. Which “enhancing effect on the memory and learning function and the cognitive function (spontaneous alternation behavior rate)” value did it give?
The value was “had no effects”.

For “AVPYP (listed as Bos taurus) [casein-derived peptide, tested as synthetic peptide]”, which “enhancing effect on the memory and learning function and the cognitive function (spontaneous alternation behavior rate)” value is on record?
Its value is “enhancement activity on the memory and learning function and the cognitive function”.

“GTWY (listed as Bos taurus) [whey-derived peptide, tested as synthetic peptide]” was tested. Which “enhancing effect on the memory and learning function and the cognitive function (spontaneous alternation behavior rate)” value did it give?
Its value is “exhibited the activity of enhancing the memory and learning function and the cognitive function in a concentration-dependent manner”.

“GYGGVSLP (listed as Bos taurus) [whey-derived peptide, tested as synthetic peptide]” was tested. Which “enhancing effect on the memory and learning function and the cognitive function (spontaneous alternation behavior rate)” value did it give?
Its value is “exhibited the activity of enhancing the memory and learning function and the cognitive function in a concentration-dependent manner”.

How did the “enhancing effect on the memory and learning function and the cognitive function (spontaneous alternation behavior rate)” value turn out when “KEMPFPKYPVEP (listed as Bos taurus) [casein-derived peptide of 12 amino acids, tested as synthetic peptide]” was run?
The value was “enhancement activity on the memory and learning function and the cognitive function”.

“KPTPEGDLEI (listed as Bos taurus) [whey-derived peptide, tested as synthetic peptide]” was tested. Which “enhancing effect on the memory and learning function and the cognitive function (spontaneous alternation behavior rate)” value did it give?
The value was “exhibited the activity of enhancing the memory and learning function and the cognitive function in a concentration-dependent manner”.

“SLPQ (listed as Bos taurus) [casein-derived peptide, tested as synthetic peptide]” was tested. Which “enhancing effect on the memory and learning function and the cognitive function (spontaneous alternation behavior rate)” value did it give?
Its value is “enhancement activity on the memory and learning function and the cognitive function”.

With “TWY (listed as Bos taurus) [whey-derived peptide, tested as synthetic peptide]” as the compound, how does the “enhancing effect on the memory and learning function and the cognitive function (spontaneous alternation behavior rate)” value read?
The value was “exhibited the activity of enhancing the memory and learning function and the cognitive function in a concentration-dependent manner”.

Which “enhancing effect on the memory and learning function and the cognitive function (spontaneous alternation behavior rate)” value does the source give for “TWYS (listed as Bos taurus) [whey-derived peptide, tested as synthetic peptide]” here?
Its value is “exhibited the activity of enhancing the memory and learning function and the cognitive function in a concentration-dependent manner”.

For “VAGTWYS (listed as Bos taurus) [whey-derived peptide, tested as synthetic peptide]”, which “enhancing effect on the memory and learning function and the cognitive function (spontaneous alternation behavior rate)” value is on record?
Its value is “exhibited the activity of enhancing the memory and learning function and the cognitive function in a concentration-dependent manner”.

“VSLPEW (listed as Bos taurus) [whey-derived peptide, tested as synthetic peptide]” was tested. Which “enhancing effect on the memory and learning function and the cognitive function (spontaneous alternation behavior rate)” value did it give?
Its value is “exhibited the activity of enhancing the memory and learning function and the cognitive function in a concentration-dependent manner”.

For “YPE (listed as Bos taurus) [casein-derived peptide, tested as synthetic peptide]”, which “enhancing effect on the memory and learning function and the cognitive function (spontaneous alternation behavior rate)” value is on record?
Its value is “enhancement activity on the memory and learning function and the cognitive function”.

How did the “enhancing effect on the memory and learning function and the cognitive function (spontaneous alternation behavior rate)” value turn out when “methionine-tryptophan [MW, reference compound]” was run?
The value was “had no enhancing effect on the memory and learning function and the cognitive function”.

With tryptophan-methionine [WM] as the compound, how does the “enhancing effect on the memory and learning function and the cognitive function (spontaneous alternation behavior rate)” value read?
Its value is “found to have an enhancing effect on the memory and learning function and the cognition function in a concentration-dependent manner; also recorded: enhancement activity on the memory and learning function and the cognitive function”.

tryptophan-tyrosine [WY] was tested. Which “enhancing effect on the memory and learning function and the cognitive function (spontaneous alternation behavior rate)” value did it give?
Its value is “found to have an enhancing effect on the memory and learning function and the cognition function in a concentration-dependent manner; also recorded: enhancement activity on the memory and learning function and the cognitive function”.

For “tyrosine-tryptophan [YW, reference compound]”, which “enhancing effect on the memory and learning function and the cognitive function (spontaneous alternation behavior rate)” value is on record?
Its value is “had no enhancing effect on the memory and learning function and the cognitive function”.

What follows are compounds tested on TNF-α (assay: Anti-inflammatory activity of isolated microglia (TNF-α in supernatant by ELISA after LPS and IFNγ)). Conditions: 12 h pretreatment with 0, 25, 50 or 100 μM synthetic peptide; then LPS 5 ng/ml and IFNγ 0.5 ng/ml for 12 h; FIG. 11.
Type: cell-based, mouse
Protocol: Brain tissue homogenate is obtained by treating the brain extirpated from a mouse with papain. After stopping the enzymatic reaction, microglia were allowed to interact with a pan-microglia marker, CD11b antibody (produced from Miltenyi Biotec) magnetically-labeled with microbeads and isolated by the MACS method.
Isolated microglia are cultured for 12 hours in a medium supplemented with various peptides. 5 ng/ml lipopolysaccharide (LPS, SIGMA-ALDRICH) and 0.5 ng/ml interferon γ(IFNγ, R & D systems) were then added and culture was continued for 12 hours. TNF-α contained in the culture supernatant was quantified with an ELISA kit (eBiosceince).
Peptides were synthesized based on the obtained amino acid sequences and the anti-inflammatory effect was evaluated. The isolated microglia are pretreated in a medium supplemented with 0, 25, 50, or 100 μM of a synthetic peptide ([…] (SEQ ID NO: 1), […] (SEQ ID NO: 17), AVPYP (SEQ ID NO: 6), SLPQ (SEQ ID NO: 9), YPE (SEQ ID NO: 12), WM (SEQ ID NO: 14), or WY (SEQ In NO: 13)) for 12 hours. As described above, LPS and IFN-γ were added to the medium and culture was continued for 12 hours. INF-α contained in the culture supernatant was measured by ELISA. The result is illustrated in FIG. 11. In FIG. 11, “CM1” indicates the result of […] (SEQ ID NO: 1), “CM2” indicates the result of […] […]

tryptophan-tyrosine [WY] was tested. Which “production of TNF-α (anti-inflammatory effect)” value did it give?
Its value is “particularly high anti-inflammatory effect”.
